Reference: PubChem BioAssay (NCI)
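Five compound concentrations were applied to cells in 96-well plates for 48 hours; endpoints were derived by simple linear interpolation of the resulting dose-response curve. At the GI50, growth is halved. The concentration for full growth arrest is given as TGI.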

What was measured:
Assay in all cases: growth of human tumour cells (NCI), 48 h
EKVX NSCLC = tested on: EKVX NSCLC
OVCAR-5 ovarian = tested on: OVCAR-5 ovarian
OVCAR-3 ovarian = tested on: OVCAR-3 ovarian
IGROV1 ovarian = tested on: IGROV1 ovarian
SN12C renal = tested on: SN12C renal
SF-295 CNS = tested on: SF-295 CNS
NCI-H522 lung = tested on: NCI-H522 lung
LOX IMVI melanoma = tested on: LOX IMVI melanoma
SR leukemia = tested on: SR leukemia
HL-60(TB) leukemia = tested on: HL-60(TB) leukemia

Row | SMILES | GI50 (EKVX NSCLC) [µM] | TGI (EKVX NSCLC) [µM] | GI50 (OVCAR-5 ovarian) [µM] | TGI (OVCAR-5 ovarian) [µM] | GI50 (OVCAR-3 ovarian) [µM] | TGI (OVCAR-3 ovarian) [µM] | GI50 (IGROV1 ovarian) [µM] | TGI (IGROV1 ovarian) [µM] | GI50 (SN12C renal) [µM] | TGI (SN12C renal) [µM] | GI50 (SF-295 CNS) [µM] | TGI (SF-295 CNS) [µM] | GI50 (NCI-H522 lung) [µM] | TGI (NCI-H522 lung) [µM] | GI50 (LOX IMVI melanoma) [µM] | TGI (LOX IMVI melanoma) [µM] | GI50 (SR leukemia) [µM] | TGI (SR leukemia) [µM] | GI50 (HL-60(TB) leukemia) [µM] | TGI (HL-60(TB) leukemia) [µM]
1 | O=C(CN(/C=C/C(=O)C(F)(F)F)c1ccccc1)c1ccc(Cl)cc1 | 40 | > 100 | 22.2 | 46.4 | 21.6 | 46.7 | 15.5 | 43.8 | 16 | 29.9 | 18.8 | 48.2 | 14.5 | 35.4 | 16 | 32.6 |  |  |  | 
2 | COc1ccc(-c2nsc3c2NC(=O)CC3c2cccc(Cl)c2)cc1 (stereo not given) |  |  | 5.3 | > 100 | 1.74 | > 29 | 3.33 | > 100 | > 22.8 | > 100 | 1.99 | 13.5 | 0.766 | 5.99 | 5.57 | > 100 | 0.519 | > 100 | 2.28 | > 27.6
3 | NC(=S)N/N=C1/CN(c2ccc(Cl)c(Cl)c2)CC(=O)C1c1nc2ccccc2s1 (stereo not given) |  | > 100 |  | > 100 |  | > 100 |  | > 100 |  | > 100 |  | > 100 |  | > 100 |  | > 100 |  |  |  | > 100
4 | Cc1cc2c(cc1CO)N1Cc3cc(C)c(CO)cc3N(C2)C1 |  | > 100 |  |  |  | > 100 |  | > 100 |  | > 100 |  | > 100 |  | > 100 |  | > 100 |  |  |  | > 100
5 | c1cc[c]([Sn]([O]c2cccc3cccnc23)([O]c2cccc3cccnc23)[c]2ccccc2)cc1 | 1.43 | 3.07 |  |  |  |  | 1.55 | 3.06 | 0.481 | 1.64 | 1.72 | 3.22 |  |  | 0.198 | 0.424 |  |  | 0.144 | 0.351
6 | COc1ccc2c(c1)CCc1c(CO)c(COC(=O)NC(C)C)n(C)c1-2 |  | > 100 |  | > 100 |  | 54.9 |  | 48.3 |  | 45.8 |  | 57.7 |  | 14.4 |  | 25.4 |  |  |  | 5.23
7 | CC(=O)OC1C(O[C@H]2CC[C@]34O[C@]35CC[C@]3(C)C(C6(C)CC[C@@H](C(C)(C)O)O6)[C@@H](O)CC3(C)[C@@H]5CC(OC3OC(CO)C(O)C(O)C3O)C4C2(C)C)OCC(O)C1O (stereo not given in full) |  | > 100 |  | > 100 |  | > 100 |  | > 100 |  | > 100 |  | > 100 |  | > 100 |  | > 59.3 |  |  |  | > 53.3
8 | COc1ccc(-c2nc(N)c(C#N)c3c2CCOc2c-3ccc3ccccc23)cc1 |  |  | 62.2 | > 100 |  |  |  |  | 21 | 76.5 |  |  | 38.1 | > 100 |  |  |  |  | > 100 | > 100
9 | CCOc1ccc(C(C)=O)cc1NC(=O)c1cccc(-c2nnn(CC)n2)c1 | 0.83 | > 100 | 9.34 | > 100 | 0.377 | 5.89 | 5.7 | > 100 | 5.8 | > 100 | 0.306 | 5.74 | 0.147 | 0.971 | 0.59 | 70.2 | 0.401 | > 100 |  | 
10 | Cc1ccc(O)c(NC2=C(Cl)C(=O)N(Cc3ccccc3)C2=O)c1 | 35.9 | > 100 | 33.3 | 89.1 | 14.9 | 32.9 | 6.44 | 24.2 | 14.9 | 32.7 | 26.2 | 71.2 | 13.1 | 29.9 | 20.3 | 45.7 | 18.3 | 84.9 |  | 
11 | COc1cccc(NC(=O)c2sc3nc4c(cc3c2N)C(O)CCC4)c1 (stereo not given) |  |  | 0.521 | > 100 | 0.106 | 0.515 | 0.383 | > 100 | 0.562 | > 100 | 0.157 | > 92.2 | 0.105 | 2.57 | 0.766 | > 100 | 0.0432 | > 100 | 0.0534 | 0.534
12 | CCN(CC)c1ccc2nc3ccc(N=Nc4ccc(O)cc4)cc3[n+](-c3ccccc3)c2c1 | 3.59 | 64.8 | 20.8 | 73.7 | 0.359 | 4.02 |  |  | 10.7 | 36.7 | 2.86 | > 100 |  |  | 2.85 | 17.3 |  |  |  | 
13 | CCC(C)(O)c1cn(-c2ccc(S(=O)(=O)O)cc2)nn1 (stereo not given) |  | > 100 |  | > 100 |  | > 100 |  | > 100 |  | > 100 |  | > 100 |  | > 100 |  | > 100 |  |  |  | > 100
14 | CC(C)(C)c1nc(-c2cccc(NS(=O)(=O)c3c(F)cccc3F)c2F)c(-c2ccnc(N)n2)s1 |  |  | 12.3 | > 100 | 35.6 | > 100 | 56.1 | > 100 | 17.7 | > 100 | 55.6 | > 100 | 19 | 54.7 | 0.233 | > 100 |  |  | 4.68 | 37.4
15 | COc1ccc(-c2n[nH]nc2-c2cc(OC)c3c(c2)OCO3)cc1 |  |  | 0.0665 | > 100 | 0.0101 |  | 0.0289 | > 100 | 0.071 | 55.6 | < 0.01 | 0.429 | < 0.01 |  | 0.0649 | 16 | < 0.01 | 17.5 | 0.0252 | 0.336
16 | COc1cc(CN(c2ccc(C)cc2)C2OC(=O)c3ccccc32)cc(OC)c1OC (stereo not given) | 0.647 | > 100 | 1.58 | > 100 | 0.328 | 13.7 | 1.29 | > 100 | 0.854 | > 100 | 0.322 | > 100 | 0.47 | 4.24 | 0.635 | > 100 |  |  | 0.406 | 33.7
17 | O=C(O)Cn1ccc2ccccc21 | > 100 | > 100 | > 100 | > 100 | > 100 | > 100 | 72.7 | > 100 | > 100 | > 100 | > 100 | > 100 | > 100 | > 100 | > 100 | > 100 |  |  |  | 
